Measurements from patent US7723363B2, “2-pyridinylethylcarboxamide derivatives and their use as fungicides” (Bayer Cropscience SA, priority 2004, dated 2010).

Assays:
Peronospora parasitica = experiment: Efficacy against Peronospora parasitica; assay type: in vivo; settings: at 330 ppm; comparison compound of WO 01/11965
Botrytis cinerea = experiment: Effectiveness on Botrytis cinerea; assay type: in vivo; settings: at 330 ppm; comparison compounds of WO 01/11965
Alternaria brassicae = experiment: In vivo test on Alternaria brassicae (leaf spot of crucifers); settings: at 330 ppm; comparison compounds of WO 01/11965
Procedure: The active ingredient tested is prepared by potter homogenisation in a concentrated suspension type formulation at 100 g/l. This suspension is then diluted with water to obtain the desired active material concentration.
Radish plants (Pernot variety) in starter cups, sown on a 50/50 peat soil-pozzolana substrate and grown at 18-20° C., are treated at the cotyledon stage by spraying with the aqueous suspension described above.
Plants, used as controls, are treated with an aqueous solution not containing the active material.
After 24 hours, the plants are contaminated by spraying them with an aqueous suspension of Alternaria brassicae spores (40,000 spores per cm^3). The spores are collected from a 12-13-day-old culture.
The contaminated radish plants are incubated for 6-7 days at about 18° C., under a humid atmosphere.
Grading is carried out 6 to 7 days after the contamination, in comparison with the control plants.

| Compound | melting point [°C] | efficacy against Peronospora parasitica (Peronospora parasitica) | effectiveness on Botrytis cinerea (Botrytis cinerea) | effectiveness on Alternaria brassicae (Alternaria brassicae) |
| --- | --- | --- | --- | --- |
| O=C(NCC(C(=O)O)c1nc(F)c(Cl)cc1F)c1sccc1I (stereo not shown) [Compound A-3] | 192 | – | – | – |
| O=C(Cc1cccs1)NCc1ncc(C(F)(F)F)cc1Cl [compound 101, N-{[3-chloro-5-(trifluoromethyl)-2-pyridinyl]methyl}-5-thienylacetamide] | – | no efficacy | no efficacy | poor efficacy |
| CCNC(=O)C(Cc1ncc(C(F)(F)F)cc1Cl)NC(=O)c1ccccc1 (stereo not shown) [compound 304, N-{1-ethylcarbamoyl-2-[3-chloro-5-(trifluoromethyl)-2-pyridinyl]-ethyl}-benzamide] | – | – | zero effectiveness | – |
| CCNC(=O)C(Cc1ncc(C(F)(F)F)cc1Cl)NC(=O)c1ccc(Cl)cc1 (stereo not shown) [compound 306, N-{1-ethylcarbamoyl-2-[3-chloro-5-(trifluoromethyl)-2-pyridinyl]-ethyl}-4-chlorobenzamide] | – | – | zero effectiveness | – |
| CCNC(=O)C(Cc1ncc(C(F)(F)F)cc1Cl)NC(=O)c1cccc([N+](=O)[O-])c1 (stereo not shown) [compound 307, N-{1-ethylcarbamoyl-2-[3-chloro-5-(trifluoromethyl)-2-pyridinyl]ethyl}-3-nitrobenzamide] | – | – | zero effectiveness | poor effectiveness |
| CCNC(=O)C(Cc1ncc(C(F)(F)F)cc1Cl)NC(=O)c1ccccc1Br (stereo not shown) [compound 310, N-{1-ethylcarbamoyl-2-[3-chloro-5-(trifluoromethyl)-2-pyridinyl]ethyl}-2-bromobenzamide] | – | – | zero effectiveness | – |
| CNC(=O)C(Cc1ncc(C(F)(F)F)cc1Cl)NC(=O)c1ccccc1 (stereo not shown) [compound 314, N-{1-methylcarbamoyl-2-[3-chloro-5-(trifluoromethyl)-2-pyridinyl]ethyl}-benzamide] | – | – | zero effectiveness | – |
| CNC(=O)C(Cc1ncc(C(F)(F)F)cc1Cl)NC(=O)c1ccc(OC)cc1 (stereo not shown) [compound 315, N-{1-methylcarbamoyl-2-[3-chloro-5-(trifluoromethyl)-2-pyridinyl]ethyl}-4-methoxybenzamide] | – | – | zero effectiveness | – |
| CNC(=O)C(Cc1ncc(C(F)(F)F)cc1Cl)NC(=O)c1ccc(-c2ccccc2)cc1 (stereo not shown) [compound 316, N-{1-methylcarbamoyl-2-[3-chloro-5-(trifluoromethyl)-2-pyridinyl]-ethyl}-4-phenylbenzamide] | – | – | zero effectiveness | poor effectiveness |
